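Assay format: 96-well plates, 48-hour exposure. GI50 is the concentration that inhibits growth by half.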 Active and inactive are the calls of the source. No stated cut-off is given here; in the data, active = GI50 up to about 1.1 µM and inactive = higher.
Assays:
Assay in all cases: growth of human tumour cells (NCI), 48 h
DU-145 = tested on: DU-145
OVCAR-4 = tested on: OVCAR-4
MCF7 = tested on: MCF7
CCRF-CEM = tested on: CCRF-CEM
CAKI-1 = tested on: CAKI-1
Hs-578T = tested on: Hs-578T
TK-10 = tested on: TK-10
Malme-3M = tested on: Malme-3M
HL-60 = tested on: HL-60
SNB-19 = tested on: SNB-19
RXF 393 = tested on: RXF 393
MDA-MB-435 = tested on: MDA-MB-435
UACC-257 = tested on: UACC-257
MOLT-4 = tested on: MOLT-4
SK-MEL-2 = tested on: SK-MEL-2
SN12C = tested on: SN12C
SNB-75 = tested on: SNB-75
SF-268 = tested on: SF-268
NCI/ADR-RES = tested on: NCI/ADR-RES
BT-549 = tested on: BT-549

| Compound | GI50 (DU-145) | GI50 (OVCAR-4) | GI50 (MCF7) | GI50 (CCRF-CEM) | GI50 (CAKI-1) | GI50 (Hs-578T) | GI50 (TK-10) | GI50 (Malme-3M) | GI50 (HL-60) | GI50 (SNB-19) | GI50 (RXF 393) | GI50 (MDA-MB-435) | GI50 (UACC-257) | GI50 (MOLT-4) | GI50 (SK-MEL-2) | GI50 (SN12C) | GI50 (SNB-75) | GI50 (SF-268) | GI50 (NCI/ADR-RES) | GI50 (BT-549) |
| --- | --- | --- | --- | --- | --- | --- | --- | --- | --- | --- | --- | --- | --- | --- | --- | --- | --- | --- | --- | --- |
| CC(=O)c1cnc2oc3ccc(O)cc3c2c1-c1ccccc1 | 32.1 µM (inactive) | 15 µM (inactive) | 48.2 µM (inactive) | 45 µM (inactive) | 29.4 µM (inactive) | 14.2 µM (inactive) | 28.6 µM (inactive) | 15.5 µM (inactive) | 37.5 µM (inactive) | 37.3 µM (inactive) | 25.3 µM (inactive) | 64.9 µM (inactive) | 65.2 µM (inactive) | 19.2 µM (inactive) | 22.6 µM (inactive) | 44.4 µM (inactive) | – | – | – | – |
| OC12COc3ccccc3C1Oc1ccccc1C2 (stereo unspecified) | > 100 µM (inactive) | > 100 µM (inactive) | > 100 µM (inactive) | > 100 µM (inactive) | > 100 µM (inactive) | – | > 100 µM (inactive) | > 100 µM (inactive) | – | – | – | > 100 µM (inactive) | > 100 µM (inactive) | > 100 µM (inactive) | > 100 µM (inactive) | > 100 µM (inactive) | > 100 µM (inactive) | > 100 µM (inactive) | > 100 µM (inactive) | > 100 µM (inactive) |
| O=C1Nc2c(Cl)cc(Cl)cc2/C1=N/NC(=O)c1ccncc1 | – | 22.2 µM (inactive) | 32.9 µM (inactive) | 29.4 µM (inactive) | 18.4 µM (inactive) | 40.6 µM (inactive) | 73.1 µM (inactive) | 16.9 µM (inactive) | 9.64 µM (inactive) | > 100 µM (inactive) | 20 µM (inactive) | 16.5 µM (inactive) | 19.6 µM (inactive) | 25.2 µM (inactive) | 19 µM (inactive) | 26.2 µM (inactive) | 46.3 µM (inactive) | – | 23.1 µM (inactive) | 37.8 µM (inactive) |
| CCOC(=O)N(C)C(=C(F)F)C(F)(F)F | 33.2 µM (inactive) | 28 µM (inactive) | 36.6 µM (inactive) | 19.8 µM (inactive) | – | 30.4 µM (inactive) | 27.8 µM (inactive) | 14.6 µM (inactive) | 20.4 µM (inactive) | – | – | 22.8 µM (inactive) | 31.5 µM (inactive) | 21.7 µM (inactive) | 16 µM (inactive) | > 10 µM (inactive) | 29.5 µM (inactive) | 25.2 µM (inactive) | 34.6 µM (inactive) | – |
| Cc1cc(C)c2c(c1)N[S@@](=O)S2 | – | 23.1 µM (inactive) | – | 21.9 µM (inactive) | 25.2 µM (inactive) | – | 30.4 µM (inactive) | 25.2 µM (inactive) | 26.4 µM (inactive) | 30.8 µM (inactive) | 10.6 µM (inactive) | – | 16.6 µM (inactive) | 25.8 µM (inactive) | 22.3 µM (inactive) | 19.4 µM (inactive) | 32.5 µM (inactive) | 17.9 µM (inactive) | – | – |
| Cc1ccccc1C1OC(=O)c2ccc3ccccc3c21 (stereo unspecified) | – | 9.51 µM (inactive) | – | 4.21 µM (inactive) | 6.21 µM (inactive) | – | 7 µM (inactive) | 5.56 µM (inactive) | 2.79 µM (inactive) | 8.87 µM (inactive) | 2.59 µM (inactive) | – | 4.62 µM (inactive) | 2.23 µM (inactive) | 2.25 µM (inactive) | 5.47 µM (inactive) | 3.55 µM (inactive) | 6.97 µM (inactive) | – | – |
| CSc1ccc(N2C(=O)C3c4[nH]c5ccccc5c4C4CCC(C(C)(C)C)CC4C3C2=O)cc1 (stereo unspecified) | – | 10.3 µM (inactive) | – | 8.49 µM (inactive) | 19.9 µM (inactive) | – | 19.5 µM (inactive) | 12.3 µM (inactive) | 13.7 µM (inactive) | 19.1 µM (inactive) | 20.3 µM (inactive) | – | 46.8 µM (inactive) | 15.4 µM (inactive) | 17.6 µM (inactive) | 16.1 µM (inactive) | 18.5 µM (inactive) | 12.4 µM (inactive) | – | – |
| O=C1CCCc2cc3c(cc21)CC1(Cc2ccccc2C1)C3 | – | 6.31 µM (inactive) | 3.9 µM (inactive) | – | – | 7.59 µM (inactive) | 7.16 µM (inactive) | 9.79 µM (inactive) | 1.84 µM (inactive) | – | 8.83 µM (inactive) | 1.91 µM (inactive) | 3.48 µM (inactive) | 3.52 µM (inactive) | 15 µM (inactive) | 4.52 µM (inactive) | 0.106 µM (active) | – | 6 µM (inactive) | – |
| CC1=C(c2ccccc2)NC(=S)C(C)C(c2ccccc2)=N1 (stereo unspecified) | 40.4 µM (inactive) | 17.2 µM (inactive) | 27 µM (inactive) | 12.1 µM (inactive) | 56.6 µM (inactive) | – | 58.2 µM (inactive) | 32.7 µM (inactive) | 12.6 µM (inactive) | > 100 µM (inactive) | 21.7 µM (inactive) | 18.7 µM (inactive) | 28.8 µM (inactive) | 15.2 µM (inactive) | – | 56.2 µM (inactive) | 65.6 µM (inactive) | 27.5 µM (inactive) | 22.8 µM (inactive) | 23.7 µM (inactive) |
| COC(=O)c1ccc2c(c1)CC1(C2)Cc2ccc3c(c2C1)CCC3 (stereo unspecified) | 53.6 µM (inactive) | 0.809 µM (active) | 23.3 µM (inactive) | 19.3 µM (inactive) | 0.0543 µM (active) | 37.9 µM (inactive) | > 100 µM (inactive) | 17.4 µM (inactive) | 14.8 µM (inactive) | 33 µM (inactive) | 17.7 µM (inactive) | 3.25 µM (inactive) | 20.2 µM (inactive) | 15 µM (inactive) | – | 18.6 µM (inactive) | 33.3 µM (inactive) | 93.8 µM (inactive) | – | – |
| COC1CCC(=O)N1CN(C(C)=O)c1ccc(C)cc1 (stereo unspecified) | > 100 µM (inactive) | > 100 µM (inactive) | > 100 µM (inactive) | 0.0569 µM (active) | > 100 µM (inactive) | > 100 µM (inactive) | > 100 µM (inactive) | – | – | > 100 µM (inactive) | > 100 µM (inactive) | > 100 µM (inactive) | > 100 µM (inactive) | > 100 µM (inactive) | > 100 µM (inactive) | > 100 µM (inactive) | > 100 µM (inactive) | > 100 µM (inactive) | > 100 µM (inactive) | – |
| COC(=O)Cc1nc2ccccc2o1 | – | > 100 µM (inactive) | – | 44.3 µM (inactive) | 37.9 µM (inactive) | – | 46.2 µM (inactive) | > 100 µM (inactive) | 12.5 µM (inactive) | > 100 µM (inactive) | > 100 µM (inactive) | – | 47 µM (inactive) | 67.9 µM (inactive) | 65.8 µM (inactive) | > 100 µM (inactive) | > 100 µM (inactive) | > 100 µM (inactive) | – | – |
| CCc1nc2c([nH]1)C(=O)c1ccccc1C2=O | – | 58.7 µM (inactive) | – | 48.5 µM (inactive) | 47.8 µM (inactive) | – | > 100 µM (inactive) | 24.8 µM (inactive) | 25.6 µM (inactive) | 46.2 µM (inactive) | > 100 µM (inactive) | – | 26.5 µM (inactive) | 46.3 µM (inactive) | > 100 µM (inactive) | 37.2 µM (inactive) | > 100 µM (inactive) | 70 µM (inactive) | – | – |
| O=C1CCCCC(=O)OC2(CCCCC2=O)CC1 (stereo unspecified) | > 100 µM (inactive) | > 100 µM (inactive) | > 100 µM (inactive) | > 100 µM (inactive) | > 100 µM (inactive) | – | > 100 µM (inactive) | > 100 µM (inactive) | – | – | > 100 µM (inactive) | > 100 µM (inactive) | > 100 µM (inactive) | > 100 µM (inactive) | > 100 µM (inactive) | > 100 µM (inactive) | 5.82 µM (inactive) | > 100 µM (inactive) | > 100 µM (inactive) | > 100 µM (inactive) |
| c1cc2c(c(NC3=NCCO3)c1)CCC2 | > 100 µM (inactive) | > 100 µM (inactive) | > 100 µM (inactive) | > 100 µM (inactive) | > 100 µM (inactive) | 78.2 µM (inactive) | > 100 µM (inactive) | > 100 µM (inactive) | 60.1 µM (inactive) | > 100 µM (inactive) | > 100 µM (inactive) | 85.7 µM (inactive) | > 100 µM (inactive) | > 100 µM (inactive) | > 100 µM (inactive) | > 100 µM (inactive) | – | > 100 µM (inactive) | > 100 µM (inactive) | – |
| CCN(CC)CCC(=O)/C=C/c1ccc(Cl)c(Cl)c1 | > 10 µM (inactive) | 9.35 µM (inactive) | 3.36 µM (inactive) | 2.45 µM (inactive) | – | – | 2.65 µM (inactive) | 3.77 µM (inactive) | 0.302 µM (active) | 5.79 µM (inactive) | – | 3.21 µM (inactive) | > 10 µM (inactive) | 3.01 µM (inactive) | 8.55 µM (inactive) | 1.86 µM (inactive) | – | 3.05 µM (inactive) | 1.99 µM (inactive) | 4.49 µM (inactive) |
| COc1cc(/C=C/C(=O)O)ccc1O [FERULATE] | > 100 µM (inactive) | > 100 µM (inactive) | > 100 µM (inactive) | > 100 µM (inactive) | > 100 µM (inactive) | > 100 µM (inactive) | > 100 µM (inactive) | > 100 µM (inactive) | > 100 µM (inactive) | > 100 µM (inactive) | – | > 100 µM (inactive) | > 100 µM (inactive) | > 100 µM (inactive) | > 100 µM (inactive) | > 100 µM (inactive) | > 100 µM (inactive) | > 100 µM (inactive) | > 100 µM (inactive) | – |

Source: ChEMBL document CHEMBL1201862, “PubChem BioAssay data set” (2004)
